# Source: US20230339949A1, “HETEROCYCLIC SUBSTITUTED FUSED y-CARBOLINE DERIVATIVE, PREPARATION METHOD THEREFOR, INTERMEDIATE THEREOF AND USE THEREOF” (SHUJING BIOPHARMA CO., LTD, priority 2020, published 2023)
# Like-named read-outs stand apart in the source and are kept apart here.
# Columns and labels:
# D2L receptor = molecular target: T1, D2L receptor (Homo sapiens, UniProt P14416); assay: Functional activity test on D2L receptor, cAMP detection (Gi antagonist test); type: cell-based; details: cryopreserved CHO-K1/D2L/Gα15 cells, forskolin + dopamine EC90
# T1 construct: expressed in transfected cells
# T1 sequence (P14416 whole entry): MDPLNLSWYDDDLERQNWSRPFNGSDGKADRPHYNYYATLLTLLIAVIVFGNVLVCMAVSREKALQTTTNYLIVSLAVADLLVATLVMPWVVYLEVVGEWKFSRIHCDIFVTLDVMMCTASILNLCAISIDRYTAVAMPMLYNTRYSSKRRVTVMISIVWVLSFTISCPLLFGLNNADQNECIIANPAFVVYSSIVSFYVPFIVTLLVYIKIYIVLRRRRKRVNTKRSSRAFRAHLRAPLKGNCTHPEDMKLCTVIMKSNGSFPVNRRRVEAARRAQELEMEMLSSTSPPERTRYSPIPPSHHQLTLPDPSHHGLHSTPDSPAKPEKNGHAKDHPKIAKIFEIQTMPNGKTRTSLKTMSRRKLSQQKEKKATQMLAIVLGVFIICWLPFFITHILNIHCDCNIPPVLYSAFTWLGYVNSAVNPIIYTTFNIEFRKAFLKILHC
# Description: (§1) The antagonistic effects of the compounds of the present disclosure on D2L and D2S receptors were detected by cyclic adenosine monophosphate (cAMP) detection method at cell-level.
# (§2) • (1) Test compound: compounds of the embodiment of the present disclosure, self-made. • (2) Control compound: dopamine hydrochloride (Sigma, H8502), (+)-Butaclamol hydrochloride (Sigma, D033). • (3) Stable cell line:
# (§3) • (1) Preparation of test compounds: the compounds of the embodiments of the present disclosure were respectively dissolved in DMSO to prepare 10 mM mother liquor, and the mother liquor was stored in the nitrogen cabinet for later use. • (2) Preparation of control compound: the control compound was dissolved in DMSO to prepare 10 mM mother liquor, and the mother liquor was repackaged and stored in the refrigerator at −80° C. for later use. • (3) IBMX was dissolved in DMSO to prepare 0.5 M stock solution and the stock solution was cryopreserved at −80° C. • (4) Forskolin was dissolved in DMSO to prepare 1 mM stock solution and the stock solution was cryopreserved at −80° C. for later use. • (5) Experimental buffer: 5× stimulation buffer was diluted to 1× with ddH2O and IBMX with a final concentration of 0.5 mM was added thereto, and the solution was mixed well for later use.
# (§4) • (1) Preparation of compounds: the test compounds and positive control compound (+)-Butaclamol hydrochloride were diluted gradient using Bravo in the compound plate (Greiner-781280), and the initial concentration of working solution was 20 μM, and the working solution was diluted at 4-fold for 10 concentrations and centrifuged at 1000 rpm for 1 minute for later use. • (2) Cryopreserved D2L cells: cells was taken out from the liquid nitrogen tank and thaw in a water bath at 37° C., and the cell suspension was transferred to a centrifuge tube containing HBSS buffer, and centrifuged at 750 rpm for 5 minutes.
# (§5) Cultured D2S cells: after absorbing the culture medium, the cells were washed with 3 mL PBS, sucked out, digested with 0.05% Trypsin for 3 min, terminated with equal volume of culture medium, transferred to centrifuge tube, and centrifuged at 750 rpm for 5 minutes. After absorbing the liquid, the centrifuge tube was added with a buffer solution containing HBSS and re-suspend, and centrifuged at 750 rpm for 5 minutes. • (3) The supernatant was discarded, and the precipitate was re-suspended with proper amount of experimental buffer, and 20 μL was taken for cell counting. • (4) Appropriate amount of cell suspension was removed, and the cell suspension was diluted to 2×10^5 cells/mL with experimental buffer, and the cell plate (PerkinElmer-6008280) was added with 5 μL/well cell suspension, and centrifuged at 1000 rpm for 1 minute. • (5) 5 μL/well was transferred to the cell plate with Bravo, and the cell plate was centrifuged at 1000 rpm for 1 minute, then the cell plate was closed and incubated at room temperature for 15 minutes. • (6) Forskolin was transferred to the cell plate with Tecan-D300e, and Dopamine hydrochloride with a final concentration of EC90 was transferred to the cell plate. • (7) The cell plate was centrifuged at 1000 rpm for 1 minute, then sealed and incubated at room temperature for 45 minutes. • (8) Standard curve: cAMP with the stock solution concentration of 2848 nM was diluted 4-fold continuously at 8 points according to the initial maximum concentration of 712 nM, and 10 μL/well was taken out to add to the cell plate. • (9) 10 μL/well of detection solution containing cAMP-d2 and Anti-cAMP-Cryptate (diluted with pyrolysis buffer at 1:20) was added to the cell plate, and the cell plate was centrifuged at 1000 rpm for 1 minute, and incubated at room temperature without light for 1 hour. • (10) Detection: the cell plate was centrifuged at 1000 rpm for 1 minute, and the plate was read with Envision (excitation light 340 nm, emission light 620 nm and 665 nm). […]
# [1] = tested on: MK-801 induced hyperactivity behavior; assay: MK-801 induced hyperactivity behavior in mice; type: in vivo, ICR mice; details: for ED50: Mus musculus, read-out: ED50 (half effective dose)
# Description: The efficacy of the compounds of the present disclosure was evaluated by high activity model of mice induced by intraperitoneal injection of MK-801.
# (§6) Experimental animals: ICR mice, male, 8 mice/group, Spelford (Beijing) Biotechnology Co., Ltd.
# Preparation of drug: the test compounds were taken, and pure water was added, and ultrasonication was performed.
# Administration route and method: gavage administration, 10 mL/kg (body weight).
# (§7) Administration frequency and duration: single dose.
# Animals were stratified by body weight and then randomly divided into blank group, model group, and administration group, and detailed information of administration is shown in the following table.
# Mice were stratified according to body weight and then randomly divided into model group, blank group and each administration group. One hour after the gavage administration of solvent or drug, 0.3 mg/kg MK-801 was injected intraperitoneally (the blank group was injected with the same volume of physiological saline), and then the mice were put into an independent activity box (a black polyethylene box with the specification of 29 cm×29 cm×30 cm) for video recording for 60 minutes, and video analysis was performed at the end of the recording to evaluate the activity of the mice.
# (§8) The experimental data were expressed as x±SD, and SPSS statistical software was used to test the homogeneity of variance. If the variance was homogeneous, single factor analysis of variance was performed, and Dunnett t test is used for pairwise comparison. The ED50 was calculated by nonlinear fitting with GraphPad Primis5 software.
# 5-HT2A receptor = molecular target: T2, 5-HT2A receptor (Homo sapiens, UniProt P28223); assay: Functional detection experiment of 5-HT2A receptor (cultured cells), calcium influx assay; type: cell-based
# T2 construct: expressed in transfected cells
# T2 sequence (P28223 whole entry): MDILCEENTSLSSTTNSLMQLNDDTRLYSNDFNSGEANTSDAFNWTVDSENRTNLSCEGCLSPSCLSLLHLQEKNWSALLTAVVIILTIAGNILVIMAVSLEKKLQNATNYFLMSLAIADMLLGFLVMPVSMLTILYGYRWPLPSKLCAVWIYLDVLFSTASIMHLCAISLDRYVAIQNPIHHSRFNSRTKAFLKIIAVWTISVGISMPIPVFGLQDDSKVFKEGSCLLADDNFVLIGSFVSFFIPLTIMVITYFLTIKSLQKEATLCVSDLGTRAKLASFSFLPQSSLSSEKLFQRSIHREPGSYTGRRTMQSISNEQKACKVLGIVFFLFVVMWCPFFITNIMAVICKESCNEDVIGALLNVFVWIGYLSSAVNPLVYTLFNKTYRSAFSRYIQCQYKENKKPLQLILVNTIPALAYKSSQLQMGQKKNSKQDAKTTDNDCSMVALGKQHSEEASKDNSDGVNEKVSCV
# Description: The antagonistic effect of the compound of the present disclosure on the 5-HT2A receptor was detected by a calcium influx assay at the cellular level.
# • (1) Test compounds: compounds of the embodiments of the present disclosure, self-made. • (2) Control compound: serotonin hydrochloride 5-hydroxytryptamine (Sigma, H9523), Ketanserin (Targetmol, T1066). • (3) Stable cell line:
# • (1) Preparation of test compounds: the compounds of the embodiments of the present disclosure were respectively dissolved in DMSO to prepare 10 mM mother liquor, and the mother liquor was stored in the nitrogen cabinet for later use. • (2) Preparation of control compound: the control compound was dissolved in DMSO to prepare 10 mM mother liquor, and the mother liquor was repackaged and stored in the refrigerator at -80° C. for later use. • (3) Preparation of 250 mM probenecid solution: 1 mL experimental buffer was added into a tube containing 77 mg powder, and the powder was dissolved by vortex oscillation. • (4) Preparation of 2× fluorescent probe solution: a bottle of fluorescent probe dry powder was taken out to balance to room temperature, and 10 mL of experimental buffer solution and 200 μL of 250 mM probenecid solution were added thereto, and the mixture was scrolled and let stand for 5 minutes to ensure complete dissolution. • (5) Experimental buffer HBSS: HBSS and HEPES were mixed evenly in a ratio of 50:1, stored in a refrigerator at 4° C., and heated at 37° C. when used.
# • (1) Cells were taken out from the liquid nitrogen tank and melted in a water bath at 37° C. The surface of the cryopreservation tube was wiped with 75% alcohol and put in the biosafety cabinet. • (2) The cell suspension was transferred to a 15 mL centrifuge tube with 4 mL preheated plating medium, and the tube was centrifuged at 1000 rpm for 5 minutes. • (3) The supernatant was discarded, and 10 mL of plating medium was added and blown gently, and the mixture was transferred to a culture dish for growth. After the cells had adhered to the wall for 24 hours, they were replaced with growth medium for continuous culture.
# • (1) The logarithmic growth cells was taken and the cells grew to about 85%-90%. The cells were performed the following operations: cell cleaning, digestion, termination, then transferred to a 15 mL centrifuge tube, and the tube was centrifuged at room temperature at 1000 rpm for 5 minutes. • (2) The supernatant was discarded, and a certain plating medium was added and blown gently. 20 μL of cell suspension was taken out and counted. • (3) Cells were diluted to 1×10^6 cells/mL and 20 μL of cell suspension was added to each well of the cell plate (Greiner-781946), so that the density of each well is 2×10^4 cells/well. • (4) The cell plate was incubated in an incubator with 5% CO2 at 37° C. for 16-24 hours. […]
# D2S receptor = molecular target: T3, D2S receptor (Homo sapiens, UniProt P14416); assay: Functional activity test on D2S receptor, cAMP detection (Gi antagonist test); type: cell-based; details: cultured HEK293/D2S cells, forskolin + dopamine EC90
# T3 construct: expressed in transfected cells
# T3 sequence (P14416 1-414 isoform P14416-2): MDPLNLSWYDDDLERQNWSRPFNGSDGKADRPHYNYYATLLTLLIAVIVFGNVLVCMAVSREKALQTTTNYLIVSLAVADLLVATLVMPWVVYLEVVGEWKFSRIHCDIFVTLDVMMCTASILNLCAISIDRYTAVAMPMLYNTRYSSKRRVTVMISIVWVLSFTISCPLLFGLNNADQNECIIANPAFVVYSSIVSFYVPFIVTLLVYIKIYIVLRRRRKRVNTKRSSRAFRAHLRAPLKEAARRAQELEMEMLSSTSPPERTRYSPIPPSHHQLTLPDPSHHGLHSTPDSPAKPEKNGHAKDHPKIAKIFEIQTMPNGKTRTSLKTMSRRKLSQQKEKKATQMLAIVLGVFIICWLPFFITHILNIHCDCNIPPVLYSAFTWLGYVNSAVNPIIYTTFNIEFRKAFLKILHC
# Description: as §1, §2, §3, §4, §5
# [2] = tested on: DOI-induced head-shaking behavior; assay: DOI-induced head-shaking behavior in mice; type: in vivo, ICR mice; details: Mus musculus, read-out: ED50 (half effective dose)
# Description: The efficacy of the compounds of the present disclosure was evaluated by the mice model of head-shaking behavior induced by intraperitoneal injection of (±) DOI (a hallucinogenic agent usually used to replicate anti-schizophrenic animal model).
# as §6
# Preparation of drug: the test compounds were taken, and solvent was added, and ultrasonication was performed.
# Administration route and method: oral gavage administration, 10 mL/kg (body weight).
# as §7
# Animals were stratified by body weight and then randomly divided into blank group, model group, and administration groups, and detailed information of administration is shown in the following table.
# Mice were stratified according to body weight and then randomly divided into model group, blank group and each administration group. One hour after the animals were gavage administration of the solvent or drugs, they were placed in a beaker (13 cm in diameter, 19 cm in height) with fresh padding, and the model drug DOI was injected intraperitoneally at a dose of 1 mg/kg. The times of head-shaking were recorded within 0-20 minutes after DOI was injected intraperitoneally.
# Head-shaking behavior is defined as rapid rotational twitch of mouse's head or wet dog-like shaking, which should be different from normal hair grooming or inquiry behavior.
# as §8
# [3] = male ICR mice, single gavage dose 1 h before MK-801 0.3 mg/kg i.p., activity recorded 60 min
# [4] = cultured CHO-K1/5-HT2A cells, calcium influx (FLIPR), antagonist mode vs agonist EC80, read-out: 5-HT2A IC50
SMILES,IC50 (D2L receptor) [nM],"ED50 [1, 3] [mg/kg]","MED (lowest effective dose) [1, 3] [mg/kg]",IC50 (5-HT2A receptor; [4]) [nM],IC50 (D2S receptor) [nM],ED50 [2] [mg/kg],IC50 (5-HT2A receptor) [nM],ED50 [1] [mg/kg]
"CN1C(=O)CN2c3c(cccc31)C1CN(CCCC(=O)c3ccc(F)cc3)CCC12 (centres unmarked) [Comparative embodiment 1, 8-(4-(4-fluorophenyl)-4-oxobutyl)-3-methyl-6b,7,8,9,10,10a-hexahydro-1H-pyrido [3′,4′:4,5]pyrrolo[1,2,3-de]quinoxalin-2(3H)-one, reference compound]",200,1.28,1,44.4,364,,,
"CCN1C(=O)CN2c3c1cccc3C1(C)CN(CCCC(=O)c3ccc(F)cc3)CCC21 (centres unmarked) [Embodiment 3, 3-ethyl-8-(4-(4-fluorophenyl)-4-oxobutyl)-6b-methyl-6b,7,8,9,10,10a-hexahydro-1H-pyrido[3′,4′:4,5]pyrrolo[1,2,3-de]quinoxalin-2(3H)-one]",51.4,,,,207,0.21,,
"Cn1c(=O)c(=O)n2c3c(cccc31)C1(C)CN(CCCC(=O)c3ccc(F)cc3)CCC21 (centres unmarked) [Embodiment 5, 8-(4-(4-fluorophenyl)-4-oxobutyl)-3,6b-dimethyl-6b,7,8,9,10,10a-hexahydro-1H-pyrido[3′,4′:4,5]pyrrolo[1,2,3-de]quinoxaline-1,2(3H)-dione]",13.1,,,,93.4,,,
"CN1C(=O)C(C)(C)N2c3c1cccc3C1(C)CN(CCCC(=O)c3ccc(F)cc3)CCC21 (centres unmarked) [Embodiment 4, 8-(4-(4-fluorophenyl)-4-oxobutyl)-1,1,3,6b-tetramethyl-6b,7,8,9,10,10a-hexahydro-1H-pyrido [3′,4′:4,5]pyrrolo[1,2,3-de]quinoxalin-2(3H)-one]",,,,,,0.42,19.7,
"CN1CCN2c3c1cccc3C1(C)CN(CCCC(=O)c3ccc(F)cc3)CCC21 (centres unmarked) [Embodiment 7, 4-(3,6b-dimethyl-2,3,6b,9,10,10a-hexahydro-1H-pyrido[3′,4′:4,5]pyrrolo[1,2,3-de]quinoxalin-8(7H)-yl)-1-(4-fluorophenyl)butan-1-one]",,,0.1,,,,3.5,0.09
"CN1C(=O)CN2c3c(cccc31)[C@@H]1CN(CCCC(=O)c3ccc(F)cc3)CC[C@@H]12 [Comparative embodiment 1-A, reference compound]",88.8,,,9.11,264,,,
"CN1C(=O)CN2c3c1cccc3[C@@]1(C)CN(CCCC(=O)c3ccc(F)cc3)CC[C@@H]21 [Embodiment 1-B, (6bS,10aR)-8-(4-(4-fluorophenyl)-4-oxobutyl)-3,6b-dimethyl-6b,7,8,9,10,10a-hexahydro-1H-pyrido[3′,4′:4,5]pyrrolo [1,2,3-de]quinoxalin-2(3H)-one]",15.5,,,108,63.1,,,
"CN1CCN2c3c(cccc31)C1CN(CCCC(=O)c3ccc(F)cc3)CCC12 (centres unmarked) [Comparative embodiment 2, 1-(4-fluorophenyl)-4-(3-methyl-2,3,6b,9,10,10a-hexahydro-1H-pyrido[3′,4′:4,5]pyrrolo[1,2,3-de]quinoxalin-8(7H)-yl)butan-1-one, reference compound]",35.8,,,,622,,,
